This assay has as its target T1, hVR1 (Homo sapiens, UniProt Q8NER1).
T1 construct: expressed in transfected cells; host or cells: HEK293
Put plainly: Human VR1 (hVR1) Functional Assay (FLIPR intracellular calcium, capsaicin challenge). It is filed as cell-based. The note with it: capsaicin 0.030 μM, HEK293 cells expressing hVR1; for inhibition at 1 µM: test concentration 1 μM. A general note: Calcium flux is commonly read through the fluorescence of an indicator in the cells.

T1 sequence (Q8NER1 whole entry): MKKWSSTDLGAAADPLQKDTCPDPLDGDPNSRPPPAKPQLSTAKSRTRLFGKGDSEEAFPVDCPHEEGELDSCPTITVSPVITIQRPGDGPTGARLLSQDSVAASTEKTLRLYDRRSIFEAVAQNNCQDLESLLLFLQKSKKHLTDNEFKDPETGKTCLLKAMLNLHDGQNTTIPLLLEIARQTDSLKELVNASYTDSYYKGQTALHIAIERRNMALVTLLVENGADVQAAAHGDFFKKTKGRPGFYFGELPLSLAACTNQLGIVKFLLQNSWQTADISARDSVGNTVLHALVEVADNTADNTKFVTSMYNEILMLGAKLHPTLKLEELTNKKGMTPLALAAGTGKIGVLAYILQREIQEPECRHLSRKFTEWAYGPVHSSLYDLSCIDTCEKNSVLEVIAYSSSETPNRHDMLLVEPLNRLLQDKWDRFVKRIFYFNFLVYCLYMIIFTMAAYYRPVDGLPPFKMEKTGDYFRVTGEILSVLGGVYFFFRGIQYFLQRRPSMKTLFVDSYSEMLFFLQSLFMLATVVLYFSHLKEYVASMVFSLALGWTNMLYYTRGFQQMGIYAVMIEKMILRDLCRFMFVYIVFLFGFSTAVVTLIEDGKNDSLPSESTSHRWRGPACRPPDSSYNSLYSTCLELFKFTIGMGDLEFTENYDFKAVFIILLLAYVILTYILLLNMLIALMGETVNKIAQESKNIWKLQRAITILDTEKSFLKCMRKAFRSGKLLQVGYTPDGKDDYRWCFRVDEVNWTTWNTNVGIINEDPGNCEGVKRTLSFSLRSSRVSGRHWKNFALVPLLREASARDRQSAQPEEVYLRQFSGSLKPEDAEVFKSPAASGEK

Consider `CC(C)(C)c1ccc(/C=C/c2nc3cc(-c4ccccc4NS(C)(=O)=O)c(C(F)(F)F)cc3[nH]2)cc1` [Cpd 55, (E)-N-(2-{2-[2-(4-tert-butyl-phenyl)-vinyl]-6-trifluoromethyl-1H-benzimidazol-5-yl}-phenyl)-methanesulfonamide], for which the inhibition at 1 µM worked out at 14%.

Consider `CC(=O)c1ccccc1-c1cc2nc(/C=C/c3ccc(C(F)(F)F)cc3)[nH]c2cc1C(F)(F)F` [Cpd 57, (E)-1-(2-{6-trifluoromethyl-2-[2-(4-trifluoromethyl-phenyl)-vinyl]-1H-benzimidazol-5-yl}-phenyl)-ethanone], for which the inhibition at 1 µM was found to be 15%.

In the case of `OCc1ccccc1-c1cc2nc(/C=C/c3ccc(C(F)(F)F)cc3)[nH]c2cc1C(F)(F)F` [Cpd 58, (E)-(2-{6-trifluoromethyl-2-[2-(4-trifluoromethyl-phenyl)-vinyl]-1H-benzimidazol-5-yl}-phenyl)-methanol], the IC50 is 0.095 µM and the inhibition at 1 µM was determined as 87%. Turning to `Oc1ccccc1-c1cc2nc(/C=C/c3ccc(C(F)(F)F)cc3)[nH]c2cc1F` [Cpd 59, (E)-2-{6-fluoro-2-[2-(4-trifluoromethyl-phenyl)-vinyl]-1H-benzimidazol-5-yl}-phenol], the concentration for half-maximal inhibition (IC50) came out at 0.44 µM and the inhibition at 1 µM is 80%. As for `Oc1cccc(-c2cc3nc(/C=C/c4ccc(C(F)(F)F)cc4)[nH]c3cc2F)c1` [Cpd 60, (E)-3-{6-fluoro-2-[2-(4-trifluoromethyl-phenyl)-vinyl]-1H-benzimidazol-5-yl}-phenol], the inhibition at 1 µM was 7%.

Regarding `OCc1ccccc1-c1cc2nc(/C=C/c3ccc(C(F)(F)F)cc3)[nH]c2cc1F` [Cpd 61, (E)-(2-{6-fluoro-2-[2-(4-trifluoromethyl-phenyl)-vinyl]-1H-benzimidazol-5-yl}-phenyl)-methanol], the IC50 worked out at 0.075 µM and the inhibition at 1 µM was found to be 100%. Regarding `CC(=O)c1ccccc1-c1cc2nc(/C=C/c3ccc(C(F)(F)F)cc3)[nH]c2cc1F` [Cpd 62, (E)-1-(2-{6-fluoro-2-[2-(4-trifluoromethyl-phenyl)-vinyl]-1H-benzimidazol-5-yl}-phenyl)-ethanone], the IC50 turned out to be 0.2 µM and the inhibition at 1 µM was determined as 100%. The matching figures for `NC(=O)c1ccccc1-c1cc2nc(/C=C/c3ccc(C(F)(F)F)cc3)[nH]c2cc1F` [Cpd 63, (E)-2-{6-fluoro-2-[2-(4-trifluoromethyl-phenyl)-vinyl]-1H-benzimidazol-5-yl}-benzamide]: 0.26 µM and 97%. Take `CC(=O)Nc1ccccc1-c1cc2nc(/C=C/c3ccc(C(F)(F)F)cc3)[nH]c2cc1F` [Cpd 64, (E)-N-(2-{6-fluoro-2-[2-(4-trifluoromethyl-phenyl)-vinyl]-1H-benzimidazol-5-yl}-phenyl)-acetamide]: the inhibition at 1 µM was found to be 41%. As for `CS(=O)(=O)Nc1ccccc1-c1cc2nc(/C=C/c3ccc(C(F)(F)F)cc3)[nH]c2cc1F` [Cpd 65, (E)-N-(2-{6-fluoro-2-[2-(4-trifluoromethyl-phenyl)-vinyl]-1H-benzimidazol-5-yl}-phenyl)-methanesulfonamide], the inhibition at 1 µM worked out at 0%.

With `OCc1ccccc1-c1cc2nc(/C=C/c3ccc(C(F)(F)F)cc3)[nH]c2cc1Cl` [Cpd 66, (E)-(2-{6-chloro-2-[2-(4-trifluoromethyl-phenyl)-vinyl]-1H-benzimidazol-5-yl}-phenyl)-methanol], the IC50 was found to be 0.048 µM and the inhibition at 1 µM amounted to 98%.

Take `CC(=O)c1ccccc1-c1cc2nc(/C=C/c3ccc(C(F)(F)F)cc3)[nH]c2cc1Cl` [Cpd 67, (E)-1-(2-{6-chloro-2-[2-(4-trifluoromethyl-phenyl)-vinyl]-1H-benzimidazol-5-yl}-phenyl)-ethanone]: the IC50 was 0.13 µM and the inhibition at 1 µM is 98%. As for `Oc1ccccc1-c1cc2nc(/C=C/c3ccc(C(F)(F)F)cc3)[nH]c2cc1Cl` [Cpd 68, (E)-2-{6-chloro-2-[2-(4-trifluoromethyl-phenyl)-vinyl]-1H-benzimidazol-5-yl}-phenol], the IC50 amounted to 0.329 µM. On to `CS(=O)(=O)Nc1ccccc1-c1ccc2[nH]c(/C=C/c3ccc(Cl)cc3)nc2c1` [Cpd 77, (E)-N-(2-{2-[2-(4-chloro-phenyl)-vinyl]-1H-benzimidazol-5-yl}-phenyl)-methanesulfonamide], for which the IC50 was 0.076 µM and the inhibition at 1 µM turned out to be 100%. For `CS(=O)(=O)Nc1ccccc1-c1ccc2[nH]c(/C=C/c3ccc(S(C)(=O)=O)cc3)nc2c1` [Cpd 83, (E)-N-(2-{2-[2-(4-methanesulfonyl-phenyl)-vinyl]-1H-benzimidazol-5-yl}-phenyl)-methanesulfonamide], the IC50 is > 0.5 µM. Take `CC(C)(O)c1ccccc1-c1ccc2[nH]c(/C=C/c3ccc(S(C)(=O)=O)cc3)nc2c1` [Cpd 84, (E)-2-(2-{2-[2-(4-methanesulfonyl-phenyl)-vinyl]-1H-benzimidazol-5-yl}-phenyl)-propan-2-ol]: the IC50 came to 0.04 µM and the inhibition at 1 µM stood at 100%.

Consider `CS(=O)(=O)c1ccc(/C=C/c2nc3cc(-c4ccccc4S(N)(=O)=O)ccc3[nH]2)cc1` [Cpd 85, (E)-2-{2-[2-(4-methanesulfonyl-phenyl)-vinyl]-1H-benzimidazol-5-yl}-benzenesulfonamide], for which the inhibition at 1 µM turned out to be 16%. For the compound `CS(=O)(=O)Nc1ccccc1-c1ccc2[nH]c(/C=C/c3ccc(OCC(F)(F)F)cc3)nc2c1` [Cpd 95, (E)-N-[2-(2-{2-[4-(2,2,2-trifluoro-ethoxy)-phenyl]-vinyl}-1H-benzimidazol-5-yl)-phenyl]-methanesulfonamide], the IC50 came to 0.301 µM and the inhibition at 1 µM came out at 81%.

For `CS(=O)(=O)Nc1ccccc1-c1ccc2[nH]c(/C=C/c3ccc(OCC(F)(F)C(F)(F)F)cc3)nc2c1` [Cpd 101, (E)-N-[2-(2-{2-[4-(2,2,3,3,3-pentafluoro-propoxy)-phenyl]-vinyl}-1H-benzimidazol-5-yl)-phenyl]-methanesulfonamide], the IC50 is > 0.5 µM. As for `CS(=O)(=O)Nc1ccccc1-c1ccc2[nH]c(/C=C/c3cccc(C(F)(F)F)c3)nc2c1` [Cpd 113, (E)-N-(2-{2-[2-(3-trifluoromethyl-phenyl)-vinyl]-1H-benzimidazol-5-yl}-phenyl)-methanesulfonamide], the inhibition at 1 µM is 48%. Consider `NS(=O)(=O)c1ccccc1-c1ccc2[nH]c(CCc3ccc(OC(F)(F)F)cc3)nc2c1` [Cpd 129, 2-{2-[2-(4-trifluoromethoxy-phenyl)-ethyl]-1H-benzimidazol-5-yl}-benzenesulfonamide], for which the IC50 was 0.034 µM and the inhibition at 1 µM stood at 96%.

Consider `NS(=O)(=O)c1ccccc1-c1ccc2[nH]c(CCc3ccc(C(F)(F)F)cc3)nc2c1` [Cpd 130, 2-{2-[2-(4-trifluoromethyl-phenyl)-ethyl]-1H-benzimidazol-5-yl}-benzenesulfonamide], for which the IC50 worked out at 0.006 µM and the inhibition at 1 µM turned out to be 100%. Take `NS(=O)(=O)c1ccccc1-c1ccc2[nH]c(CCc3ccc(S(=O)(=O)C(F)(F)F)cc3)nc2c1` [Cpd 131, 2-{2-[2-(4-trifluoromethanesulfonyl-phenyl)-ethyl]-1H-benzimidazol-5-yl}-benzenesulfonamide]: the IC50 came out at 0.031 µM and the inhibition at 1 µM worked out at 96%. The matching figures for `NS(=O)(=O)c1ccccc1-c1ccc2[nH]c(CCc3ccc(Cl)cc3)nc2c1` [Cpd 139, 2-{2-[2-(4-chloro-phenyl)-ethyl]-1H-benzimidazol-5-yl}-benzenesulfonamide]: 0.031 µM and 98%.

As for `CS(=O)(=O)c1ccc(CCc2nc3cc(-c4ccccc4S(N)(=O)=O)ccc3[nH]2)cc1` [Cpd 145, 2-{2-[2-(4-methanesulfonyl-phenyl)-ethyl]-1H-benzimidazol-5-yl}-benzenesulfonamide], the inhibition at 1 µM was 19%. For `NS(=O)(=O)c1ccccc1-c1ccc2[nH]c(CCc3cccc(C(F)(F)F)c3)nc2c1` [Cpd 175, 2-{2-[2-(3-trifluoromethyl-phenyl)-ethyl]-1H-benzimidazol-5-yl}-benzenesulfonamide], the IC50 is 0.016 µM and the inhibition at 1 µM is 100%. In the case of `NS(=O)(=O)c1ccccc1-c1ccc2[nH]c(C3CC3c3ccc(C(F)(F)F)cc3)nc2c1` (stereo not shown) [Cpd 190, 2-{2-[2-(4-trifluoromethyl-phenyl)-cyclopropyl]-1H-benzimidazol-5-yl}-benzenesulfonamide], the IC50 turned out to be 0.038 µM and the inhibition at 1 µM turned out to be 94%. For `CC(C)(O)c1ccccc1-c1ccc2[nH]c(C3CC3c3ccc(Cl)cc3)nc2c1` (stereo not shown) [Cpd 198, 2-(2-{2-[2-(4-chloro-phenyl)-cyclopropyl]-1H-benzimidazol-5-yl}-phenyl)-propan-2-ol], the IC50 came to 0.01 µM and the inhibition at 1 µM stood at 95%. For `CC(C)(O)c1ccccc1-c1ccc2[nH]c(C3CC3c3cccc(C(F)(F)F)c3)nc2c1` (stereo not shown) [Cpd 234, 2-(2-{2-[2-(3-trifluoromethyl-phenyl)-cyclopropyl]-1H-benzimidazol-5-yl}-phenyl)-propan-2-ol], the inhibition at 1 µM was found to be 7%.

As for `NS(=O)(=O)c1ccccc1-c1ccc2[nH]c(C#Cc3ccc(C(F)(F)F)cc3)nc2c1` [Cpd 250, 2-[2-(4-trifluoromethyl-phenylethynyl)-1H-benzimidazol-5-yl]-benzenesulfonamide], the IC50 was 0.019 µM and the inhibition at 1 µM is 98%. Regarding `CC(C)(O)c1ccccc1-c1ccc2[nH]c(C#Cc3cccc(C(F)(F)F)c3)nc2c1` [Cpd 294, 2-{2-[2-(3-trifluoromethyl-phenylethynyl)-1H-benzimidazol-5-yl]-phenyl}-propan-2-ol], the IC50 came to 0.0091 µM and the inhibition at 1 µM was 101%. The corresponding values for `NS(=O)(=O)c1ccccc1-c1ccc2[nH]c(C#Cc3cccc(C(F)(F)F)c3)nc2c1` [Cpd 295, 2-[2-(3-trifluoromethyl-phenylethynyl)-1H-benzimidazol-5-yl]-benzenesulfonamide] are 0.016 µM and 100%.

What is called inhibition is the change of the read-out against control, counted positive when it falls. For orientation: IC50 means the point on the concentration scale where inhibition reaches its midpoint.

The record behind these values is patent US7951829B2, “Benzimidazole modulators of VR1” (Janssen Pharmaceutica NV, priority 2006, dated 2011).
